Reference: patent US20060014726A1, “Derivatives of cyclic1, 3- propanediol phosphate and their action in differentiation therapy” (priority 2002, published 2006)

How the values were obtained:
K562 cells = test system: K562 cells
Protocol: It is known from the literature that sodium butyrate derives K562 cells into the erythroid differentiation program (Sutherland et al. 1986). Base on such an observation, the ability of 1,3-cPP alone or in combination with sodium butyrate may trigger the erythroid differentiation program manifested by hemoglobin production.
K562 cells were incubated for 5 days in the presence or absence of 10 or 50 μM 1,3cPP and 1 mM butyric acid as a differentiating agent. Quantitative measurements of hemoglobin production was determined by staining of lysed cells with benzidine-peroxide reagent. The benzidine-peroxide reagent was prepared by dissolving 3,3′,5,5′-tetramethyl benzidine in 90% acetic acid and mixing with an equal volume of freshly prepared 1% hydrogen peroxide. Cell lysate, obtained by hypotonic lysing of 5×10^4 cells in 0.1 ml distilled water, was added to 0.1 ml benzidine reagent and incubated at room temperature for 10 minutes in the dark. Absorbance was measured at 515 nm and was taken as a relative index of the hemoglobin level.

[1] = test system: estrogen receptor-α (ER-α) in MCF-7 cells; experiment: Western blot analysis of ER-α level in MCF-7 cells; assay type: cell-based, human; conditions: MCF-7 cells treated for 9 days (FIG. 9)
Protocol: Turning to FIG. 1 there are shown Western blot analyses showing the effect of 1,3cPP on the expression level of ER-α. In the ER-α assay, MCF-7 cells were incubated with 1-100 μM 1,3cPP for up to 14 days. The analysis indicates a relative increase in the level of wild type ER-α receptor (MW 70,000) with either an increase in 1,3cPP concentration or time of incubation. On days 6 and 14, a nearly 2-fold and 3-fold increase were observed, respectively (FIGS. 1A, C, D, F). […] This band could be related to one of deleted exons D3-4 (MW 49,000), D4 (MW 54,000), or D7 (MW 51,000) ER-α variants.
(§1) Breast Cancer Cells. The human breast cancer MCF-7 cell line were obtained from Prof. Hadassa Degani, of Weizmann Institute of Science, Rehovot, Israel. The cells were grown as monolayers in high glucose DMEM supplemented with 6% fetal calf serum and combined antibiotics. Human breast cancer T47D cells, clones 8 (ER^loPR^lo) and 11 (ER^+PR^+) were obtained from Prof Iafa Keydar, Tel-Aviv university and were grown in DMEM supplemented with 10% fetakl calf serum antibiotics. K562 erythroleukemia cells were obtained from Dr. Alfa Peled of Weizmann Institute of Science, Rehovot, Israel. These cells were grown in RPMI 1640 containing 10% fetal calf serum and antibiotics. All lines were grown at 37° C. in the presence of 5% CO2. The absence of Mycoplasma contamination was monitored by a Mycotrim TC test (Irvine Scientific, Santa Ana, Calif.) carried out once every 3 months.
For ER-α protein analysis, MCF-7 and T47D cells were cultured in 60×15 mm petri dishes. From the second day of culture onward, the cells were treated with various concentrations of 1,3cPP for up to 14 days. At the end of the incubation period, the medium was aspirated and the cells were washed 3 times with cold (4° C.) PBS. The cells were then gently scraped off using a rubber policeman in 0.25 ml of lysis buffer composed of 50 mM β-glycerophosphate, 1 mM DTT, 1.5 mM EGTA, 1 mM EDTA, 1% (Octylphenoxy)polyethoxyethanol (IGEPAL, Sigma, St. Louis, Mo.), a nonionic detergent, and a cocktail of protease inhibitors, including 1 mM phenylmethylsulfonyl fluoride (PMSF), 1 mM benzamidine, 10 μg/ml aprotinin, 10 μg/ml leupeptin, and 2 μg/ml pepstanin, as well as 1 mM sodium orthovanadate (Sigma, St. Louis, Mo.) as a phosphatase inhibitor. […] The protein concentration in each sample (1.5-4 mg/ml) was determined using the Coomassie Protein Assay (Pierce, Rockford, Ill.) according to the manufacturer's instructions. […] Bound antibodies were detected by horseradish peroxidase-conjugated goat anti-rabbit IgG, (Transduction Laboratories, Lexington, Ky. using the ECL detection method. Band densities were quantified by densitometry (Biorad model GS-690 Imaging densitometer) using Molecular Analyst software.

[2] = test system: progesterone receptor (PR) in MCF-7 cells; experiment: Western blot analysis of PR level in MCF-7 cells; assay type: cell-based, human; conditions: MCF-7 cells treated for 9 days (FIG. 10)
Protocol: In an analogous manner, a set of experiments was preformed with MCF-7 cells for determining the level of PR upon incubation with varying concentrations of 1,3-cPP for a period of up to 11 days. Similar to the augmentation observed for ER-α, an increase of up to 2.8 and 2.2 fold expression of the wild type PR (MW 98,000), was observed from 10 μM 1,3-cPP and upwards on days 8 and 11, respecively (FIGS. 3A-D).
as §1
For ER-α protein analysis, MCF-7 and T47D cells were cultured in 60×15 mm petri dishes. From the second day of culture onward, the cells were treated with various concentrations of 1,3cPP for up to 14 days. At the end of the incubation period, the medium was aspirated and the cells were washed 3 times with cold (4° C.) PBS. […] The protein concentration in each sample (1.5-4 mg/ml) was determined using the Coomassie Protein Assay (Pierce, Rockford, Ill.) according to the manufacturer's instructions. […] Bound antibodies were detected by horseradish peroxidase-conjugated goat anti-rabbit IgG, (Transduction Laboratories, Lexington, Ky. using the ECL detection method. Band densities were quantified by densitometry (Biorad model GS-690 Imaging densitometer) using Molecular Analyst software.

[3] = test system: Casein Kinase in MCF-7 cells; experiment: Casein Kinase level in MCF-7 cells; assay type: cell-based, human; conditions: MCF-7 cells treated for 9 days (FIG. 11)

With `CCCC(=O)[O-].[Na+]` [sodium butyrate, reference compound] the hemoglobin synthesis (K562 cells) was “only a small effect”.

For `NC1(CO)COP(=O)(O)OC1` (stereo not shown) [Example 18, 5-Amino-5-hydroxymethyl-2-oxo-2λ5-[1,3,2]dioxaphosphi-nan-2-ol], the “Estrogen receptor alpha level” value [1] was “promotion of synthesis”, the progestrone receptor level [2] was “promotion of synthesis” and the “Casein Kinase level” value [3] was “promotion of Casein Kinase levels”.
